Source: patent publication US20220402914A1, “Tryptoline-Based Benzothiazoles and their use as Antibiotics and Antibiotic Resistance-Modifying Agents” (The Regents of the University of Colorado, a body corporate, priority 2019, published 2022)
In brackets after ≈: the same amount, converted by molar mass. Several values for one entry are separate records, joined by “and”; a condition that tells them apart may be missing. Equal entries are not always repeated.

Key:
MRSA ATCC BAA-44 [1] = assay: Minimum re-sensitizing concentration (MRC) in the presence of cefazolin; assay type: cell-based, Staphylococcus aureus; conditions: MRSA BAA-44, cefazolin
Experimental: (§1) RMA activity of the analogues was tested by assessing their abilities to sensitize MRSA to the antibiotic cefazolin (a first-generation cephalosporin). The well characterized strain MRSA ATCC BAA-44 was tested as previously described. […] The minimal inhibitory concentration (MIC), or the lowest concentration at which S. aureus is considered susceptible to an antibacterial, was determined by the standard broth microdilution method detailed in the CLSI handbook. RMA activity was compared by the ratio of MIC/MRC. The half growth inhibitory concentration (GI50) of each analogue against HeLa cells was determined as previously described. […] The luminescence of each sample was recorded in an Envision Multilabel Plate Reader (Perkin Elmer). Results of MICs and MRCs were confirmed by testing in triplicate. The GI50 assay was performed in duplicate.

HeLa cells = assay: GI50 against HeLa cells, Cell Titer Glo viability assay; assay type: cell-based, human; conditions: 24 h
Experimental: as §1

MRSA ATCC BAA-44 [2] = assay: Minimal inhibitory concentration (MIC), standard broth microdilution; assay type: cell-based, Staphylococcus aureus; conditions: for MIC: Staphylococcus aureus, MRSA BAA-44 strain, read-out: MIC; for concentration that inhibited the growth of MRSA BAA-44 on average (antibiotic controls): antibiotic alone; for MIC (in words): MRSA BAA-44
Experimental: as §1

SMILES	GI50 (HeLa cells) [µg/mL]	MIC (MRSA ATCC BAA-44 [2]) [µg/mL]	also measured
CN(C)C(=O)C1CN(c2nc3ccc(Cl)cc3s2)Cc2[nH]c3ccc(Cl)cc3c21 (racemic) [Compound 9, 6-Chloro-2-(6-chlorobenzo[d]thiazol-2-yl)-N,N-dimethyl-2,3,4,9-tetrahydro-1H-pyrido[3,4-b]indole-4-carboxamide]	–	–	RMA activity (in words) (MRSA ATCC BAA-44 [1]): significantly decreased or abolished the RMA activity
OCC1CN(c2nc3ccc(Cl)cc3s2)Cc2[nH]c3ccc(Cl)cc3c21 (racemic) [Compound 10, (6-Chloro-2-(6-chlorobenzo[d]thiazol-2-yl)-2,3,4,9-tetrahydro-1H-pyrido[3,4-b]indol-4-yl)methanol]	10.8 (≈ 26.7 µM)	–	–
COCOCC1CN(c2nc3ccc(Cl)cc3s2)Cc2[nH]c3ccc(Cl)cc3c21 (racemic) [Compound 11, 6-Chloro-2-(6-chloro-4-((methoxymethoxy)methyl)-1,3,4,9-tetrahydro-2H-pyrido[3,4-b]indol-2-yl)benzo[d]thiazole]	7.0 (≈ 15.6 µM)	–	–
Cl.NCCSCC1CN(c2nc3ccc(Cl)cc3s2)Cc2[nH]c3ccc(Cl)cc3c21 (racemic) [Compound 12a, 2-(((6-Chloro-2-(6-chlorobenzo[d]thiazol-2-yl)-2,3,4,9-tetrahydro-1H-pyrido[3,4-b]indol-4-yl)methyl)thio)ethan-1-amine hydrochloride]	3.8	–	–
NCC1CN(c2nc3ccc(Cl)cc3s2)Cc2[nH]c3ccc(Cl)cc3c21 (racemic) [Compound 12b, (6-Chloro-2-(6-chlorobenzo[d]thiazol-2-yl)-2,3,4,9-tetrahydro-1H-pyrido[3,4-b]indol-4-yl)methanamine]	1.5 (≈ 3.72 µM)	–	–
CN(C)CC1CN(c2nc3ccc(Cl)cc3s2)Cc2[nH]c3ccc(Cl)cc3c21 (racemic) [Compound 12c, 1-(6-Chloro-2-(6-chlorobenzo[d]thiazol-2-yl)-2,3,4,9-tetrahydro-1H-pyrido[3,4-b]indol-4-yl)-N,N-Dimethylmethanamine]	5.2 (≈ 12.1 µM)	2 (≈ 4.64 µM)	–
C[N+](C)(C)CC1CN(c2nc3ccc(Cl)cc3s2)Cc2[nH]c3ccc(Cl)cc3c21.[I-] (racemic) [Compound 12d, 1-(6-Chloro-2-(6-chlorobenzo[d]thiazol-2-yl)-2,3,4,9-tetrahydro-1H-pyrido[3,4-b]indol-4-yl)-N,N,N-trimethylmethanaminium iodide]	–	8	–
NCCNCC1CN(c2nc3ccc(Cl)cc3s2)Cc2[nH]c3ccc(Cl)cc3c21 (racemic) [Compound 12e, N1-((6-chloro-2-(6-chlorobenzo[d]thiazol-2-yl)-2,3,4,9-tetrahydro-1H-pyrido[3,4-b]indol-4-yl)methyl)ethane-1,2-diamine]	2.4 (≈ 5.38 µM)	–	–
N=CNCC1CN(c2nc3ccc(Cl)cc3s2)Cc2[nH]c3ccc(Cl)cc3c21 (racemic) [Compound 12f, N-((6-chloro-2-(6-chlorobenzo[d]thiazol-2-yl)-2,3,4,9-tetrahydro-1H-pyrido[3,4-b]indol-4-yl)methyl)formimidamide]	3.8 (≈ 8.83 µM)	4 (≈ 9.29 µM)	–
Cc1nnc(SCC2=C(C(=O)O)N3C(=O)[C@@H](NC(=O)Cn4cnnn4)[C@H]3SC2)s1 [Cefazolin, reference compound]	–	–	concentration that inhibited the growth of MRSA BAA-44 on average (antibiotic controls) (MRSA ATCC BAA-44 [2]): 128 µg/mL and 256 µg/mL
CO/N=C(\C(=O)N[C@@H]1C(=O)N2C(C(=O)O)=C(COC(N)=O)CS[C@H]12)c1ccco1 [Cefuroxime, reference compound]	–	–	concentration that inhibited the growth of MRSA BAA-44 on average (antibiotic controls) (MRSA ATCC BAA-44 [2]): 128 µg/mL and 256 µg/mL
Oc1cc(Cl)c2nc(N3CCc4c([nH]c5ccc(Cl)cc45)C3)sc2c1 [Compound 4aa, 4-Chloro-2-(6-chloro-1,3,4,9-tetrahydro-2H-pyrido[3,4-b]indol-2-yl)-1,3-benzothiazol-6-ol]	5.5 (≈ 14.1 µM)	> 32	–
NCCOc1cc(Cl)c2nc(N3CCc4c([nH]c5ccc(Cl)cc45)C3)sc2c1 [Compound 4ab, 2-((4-Chloro-2-(6-chloro-1,3,4,9-tetrahydro-2H-pyrido[3,4-b]indol-2-yl)benzo[d]thiazol-6-yl)oxy)ethan-1-amine]	–	8 (≈ 18.5 µM)	–
Clc1ccc2[nH]c3c(c2c1)CCN(c1nc2c(Cl)cc(Br)cc2s1)C3 [Compound 4ac, 2-(6-Bromo-4-chloro-1,3-benzothiazol-2-yl)-6-chloro-2,3,4,9-tetrahydro-1H-pyrido[3,4-b]indole]	22 (≈ 48.5 µM)	> 32	–
Cl.NCC(=O)Nc1cc(Cl)c2nc(N3CCc4c([nH]c5ccc(Cl)cc45)C3)sc2c1 [Compound 4ae, 2-amino-N-(4-chloro-2-(6-chloro-1,3,4,9-tetrahydro-2H-pyrido[3,4-b]indol-2-yl)benzo[d]thiazol-6-yl)acetamide hydrochloride]	14.8	–	MIC (in words) (MRSA ATCC BAA-44 [2]): excellent MICs
FC(F)(F)c1cc(Br)cc2sc(N3CCc4c([nH]c5ccc(Cl)cc45)C3)nc12 [Compound 4ag, 2-[6-Bromo-4-(trifluoromethyl)-1,3-benzothiazol-2-yl]-6-chloro-2,3,4,9-tetrahydro-1H-pyrido[3,4-b]indole]	5.9 (≈ 12.1 µM)	4 (≈ 8.22 µM)	–

SMILES	GI50 (HeLa cells) [µg/mL]	MIC (MRSA ATCC BAA-44 [2]) [µg/mL]	also measured
Cl.Nc1cc(C(F)(F)F)c2nc(N3CCc4c([nH]c5ccc(Cl)cc45)C3)sc2c1 [Compound 4ah, 2-(6-Chloro-1,3,4,9-tetrahydro-2H-pyrido[3,4-b]indol-2-yl)-4-(trifluoromethyl)-1,3-benzothiazol-6-aminium chloride]	32	16	–
Cl.NCCNc1cc(C(F)(F)F)c2nc(N3CCc4c([nH]c5ccc(Cl)cc45)C3)sc2c1 [Compound 4aj, N1-(2-(6-chloro-1,3,4,9-tetrahydro-2H-pyrido[3,4-b]indol-2-yl)-4-(trifluoromethyl)benzo[d]thiazol-6-yl)ethane-1,2-diamine hydrochloride]	7.4	–	MIC (in words) (MRSA ATCC BAA-44 [2]): excellent MICs
Clc1ccc2[nH]c3c(c2c1)CCN(c1nc2ccccc2s1)C3 [Compound 4b, 2-(1,3-Benzothiazol-2-yl)-6-chloro-2,3,4,9-tetrahydro-1H-pyrido[3,4-b]indole]	–	–	RMA activity (in words) (MRSA ATCC BAA-44 [1]): no RMA activity
Cc1ccc2nc(N3CCc4c([nH]c5ccc(Cl)cc45)C3)sc2c1 [Compound 4c, 6-Chloro-2-(6-methyl-1,3-benzothiazol-2-yl)-2,3,4,9-tetrahydro-1H-pyrido[3,4-b]indole]	–	–	RMA activity (in words) (MRSA ATCC BAA-44 [1]): no RMA activity
Clc1ccc2[nH]c3c(c2c1)CCN(c1nc2ncccc2s1)C3 [Compound 4d, 6-Chloro-2-([1,3]thiazolo[4,5-b]pyridin-2-yl)-2,3,4,9-tetrahydro-1H-pyrido[3,4-b]indole]	–	–	RMA activity (in words) (MRSA ATCC BAA-44 [1]): abolished
FC(F)(F)c1cnc2nc(N3CCc4c([nH]c5ccc(Cl)cc45)C3)sc2c1 [Compound 4e, 6-Chloro-2-[6-(trifluoromethyl)[1,3]thiazolo[4,5-b]pyridin-2-yl]-2,3,4,9-tetrahydro-1H-pyrido[3,4-b]indole]	–	–	RMA activity (in words) (MRSA ATCC BAA-44 [1]): abolished
Clc1ccc2nc(N3CCc4c([nH]c5cccc(Cl)c45)C3)sc2c1 [Compound 4f, 5-Chloro-2-(6-chloro-1,3-benzothiazol-2-yl)-2,3,4,9-tetrahydro-1H-pyrido[3,4-b]indole]	–	> 16	–
Clc1ccc2nc(N3CCc4c([nH]c5c(Cl)cccc45)C3)sc2c1 [Compound 4h, 8-Chloro-2-(6-chloro-1,3-benzothiazol-2-yl)-2,3,4,9-tetrahydro-1H-pyrido[3,4-b]indole]	–	> 16	–
Clc1ccc2nc(N3CCc4c([nH]c5ccc(Br)cc45)C3)sc2c1 [Compound 4j, 6-Bromo-2-(6-chloro-1,3-benzothiazol-2-yl)-2,3,4,9-tetrahydro-1H-pyrido[3,4-b]indole]	–	4 (≈ 9.55 µM)	–
CCOC(=O)C1c2[nH]c3ccc(Cl)cc3c2CCN1c1nc2ccc(Cl)cc2s1 (stereo not shown) [Compound 4l, Ethyl 6-chloro-2-(6-chloro-1,3-benzothiazol-2-yl)-2,3,4,9-tetrahydro-1H-pyrido[3,4-b]indole-1-carboxylate]	–	–	RMA activity (in words) (MRSA ATCC BAA-44 [1]): abolished
CCn1c2c(c3cc(Cl)ccc31)CCN(c1nc3ccc(Cl)cc3s1)C2 [Compound 4o, 6-Chloro-2-(6-chloro-1,3-benzothiazol-2-yl)-9-ethyl-2,3,4,9-tetrahydro-1H-pyrido[3,4-b]indole]	–	–	RMA activity (in words) (MRSA ATCC BAA-44 [1]): abolished
Clc1cc(Cl)c2nc(N3CCc4c([nH]c5ccc(Cl)cc45)C3)sc2c1 [Compound 4x, 6-Chloro-2-(4,6-dichloro-1,3-benzothiazol-2-yl)-2,3,4,9-tetrahydro-1H-pyrido[3,4-b]indole]	16.1 (≈ 39.4 µM)	2 (≈ 4.89 µM)	MIC (in words) (MRSA ATCC BAA-44 [2]): excellent MICs
Clc1ccc2[nH]c3c(c2c1)CCN(c1nc2c(Cl)c(Cl)c(Cl)cc2s1)C3 [Compound 4y, 6-Chloro-2-(4,5,6-trichloro-1,3-benzothiazol-2-yl)-2,3,4,9-tetrahydro-1H-pyrido[3,4-b]indole]	11.7 (≈ 26.4 µM)	2 (≈ 4.51 µM)	MIC (in words) (MRSA ATCC BAA-44 [2]): excellent MICs
S=C(Nc1ccc(Cl)cc1)N1CCc2c([nH]c3ccc(Cl)cc23)C1 [Compound 5a, 6-Chloro-N-(4-chlorophenyl)-1,3,4,9-tetrahydro-2H-pyrido[3,4-b]indole-2-carbothioamide]	–	4 (≈ 10.6 µM)	–
FC(F)(F)c1cccc(NC(=S)N2CCc3c([nH]c4ccc(Cl)cc34)C2)c1 [Compound 5c, 6-Chloro-N-[3-(trifluoromethyl)phenyl]-1,3,4,9-tetrahydro-2H-pyrido[3,4-b]indole-2-carbothioamide]	–	2 (≈ 4.88 µM)	–
